Measurements reported in US20060014644A1, “Phenylsulfonyl ureas, process for their preparation and their use as herbicides and plant growth regulators” (Hoechst Schering AgrEvo GmbH, priority 1999, published 2006).

Legend:
[1] = tested on: harmful plants such as Sinapis alba, Chrysanthemum segetum, Avena sativa, Stellaria media, Echinochloa crus-galli, Lolium multiflorum, Setaria spp., Abutilon …; experiment: Pre-emergence effect on weeds (greenhouse pot test, visual scoring); assay type: in vivo, monocotyledonous and dicotyledonous weed plants; details: application rate of 0.3 kg and less of active substance per hectar, scored visually after 3 to 4 weeks by comparison with untreated controls
Text: 1. Pre-Emergence Effect on Weeds
Seeds or rhizome pieces of monocotyledonous and dicotyledonous weed plants were placed in sandy loam soil in cardboard pots and covered with soil. The compounds according to the invention which were formulated in the form of wettable powders or emulsion concentrates were then applied to the surface of the soil cover in the form of aqueous suspensions or emulsions at an application rate of 600 to 800 l of water/ha (converted), in various dosages.
After the treatment, the pots were placed in a greenhouse and kept under good growth conditions for the weeds. After the test plants had emerged, the damage to the plants or the negative effect on the emergence was scored visually after a test period of 3 to 4 weeks by comparison with untreated controls. As shown by the test results, compounds according to the invention have good herbicidal pre-emergence activity against a broad spectrum of weed grasses and broad-leafed weeds.

[2] = tested on: harmful plants such as Sinapis alba, Echinochloa crus-galli, Lolium multiflorum, Chrysanthemum segetum, Setaria spp., Abutilon theophrasti, Amaranthus …; experiment: Post-emergence effect on weeds (greenhouse pot test, visual scoring); assay type: in vivo, monocotyledonous and dicotyledonous weeds; details: three-leaf stage, application rate of 0.3 kg and less of active substance per hectare, scored visually after about 3 to 4 weeks by comparison with untreated controls
Description: 2. Post-Emergence Effect on Weeds
Seeds or rhizome pieces of monocotyledonous and dicotyledonous weeds were placed in sandy loam soil in plastic pots, covered with soil and grown in a greenhouse under good growth conditions. Three weeks after sowing, the test plants were treated at the three-leaf stage. The compounds according to the invention which were formulated as wettable powders or emulsion concentrates were sprayed, at various dosages, onto the green parts of the plants at an application rate of 600 to 800 l of water/ha (converted). After the test plants had remained in the greenhouse for about 3 to 4 weeks under ideal growth conditions, the effect of the preparations was scored visually by comparison with untreated controls. The agents according to the invention also have good herbicidal activity post-emergence against a broad spectrum of economically important Weed grasses and broad-loafed weeds.

Row | SMILES | herbicidal activity against harmful plants, pre-emergence [1] | herbicidal activity against harmful plants, post-emergence [2]
1 | CCOC(=O)c1c(N)cccc1S(=O)(=O)NC(=O)Nc1nc(Cl)cc(OC)n1 [Example 1-55] | very good herbicidal activity | very good herbicidal activity
2 | COc1nc(NC(=O)NS(=O)(=O)c2cccc(N)c2C(=O)O)nc(OC)n1 [Example 1-9] | very good herbicidal activity | very good herbicidal activity
3 | CCC(C)Nc1cccc(S(=O)(=O)NC(=O)Nc2nc(OC)nc(OC)n2)c1C(=O)OC (stereo not shown) [Example 1-271] | very good herbicidal activity | very good herbicidal activity
4 | CCOC(=O)c1c(N)cccc1S(=O)(=O)NC(=O)Nc1nc(OC)cc(OC)n1 [Example 1-45] | very good herbicidal activity | very good herbicidal activity
5 | CCOC(=O)c1c(N)cccc1S(=O)(=O)NC(=O)Nc1nc(OC)nc(OC)n1 [Example 1-57] | very good herbicidal activity | very good herbicidal activity
6 | CCNc1cccc(S(=O)(=O)NC(=O)Nc2nc(OC)nc(OC)n2)c1C(=O)OC [Example 1-135] | very good herbicidal activity | very good herbicidal activity
7 | COC(=O)c1c(N)cccc1S(=O)(=O)NC(=O)Nc1nc(OC(F)F)cc(OC(F)F)n1 [Example 1-41] | very good herbicidal activity | very good herbicidal activity
8 | CCOC(=O)c1c(NCC(C)C)cccc1S(=O)(=O)NC(=O)Nc1nc(Cl)cc(OC)n1 [Example 1-189] | very good herbicidal activity | very good herbicidal activity
9 | COC(=O)c1c(NC2CC2)cccc1S(=O)(=O)NC(=O)Nc1nc(OC)nc(OC)n1 [Example 1-359] | very good herbicidal activity | very good herbicidal activity
10 | COC(=O)c1c(NCc2ccccc2)cccc1S(=O)(=O)NC(=O)Nc1nc(OC)cc(OC)n1 [Example 1-381] | very good herbicidal activity | very good herbicidal activity
11 | CCNc1cccc(S(=O)(=O)NC(=O)Nc2nc(C)nc(OC)n2)c1C(=O)OC [Example 1-131] | very good herbicidal activity | very good herbicidal activity
12 | COC(=O)c1c(NC2CC2)cccc1S(=O)(=O)NC(=O)Nc1nc(C)nc(OC)n1 [Example 1-355] | very good herbicidal activity | very good herbicidal activity
13 | COC(=O)c1c(NCCCC(F)(F)F)cccc1S(=O)(=O)NC(=O)Nc1nc(OC)cc(OC)n1 [Example 1-241] | very good herbicidal activity | very good herbicidal activity
14 | COC(=O)c1c(N)cccc1S(=O)(=O)NC(=O)Nc1nc(C)nc(OC)n1 [Example 1-15] | very good herbicidal activity | very good herbicidal activity
15 | COC(=O)c1c(NC(C)C)cccc1S(=O)(=O)NC(=O)Nc1nc(OC)nc(OC)n1 [Example 1-159] | very good herbicidal activity | very good herbicidal activity
16 | COC(=O)c1c(NC(C)C)cccc1S(=O)(=O)NC(=O)Nc1nc(OC)cc(OC)n1 [Example 1-153] | very good herbicidal activity | very good herbicidal activity

Row | SMILES | herbicidal activity against harmful plants, pre-emergence [1] | herbicidal activity against harmful plants, post-emergence [2]
17 | COC(=O)c1c(N)cccc1S(=O)(=O)[N-]C(=O)Nc1nc(OC)nc(OC)n1.[Na+] [Example 1-26] | very good herbicidal activity | very good herbicidal activity
18 | COC(=O)c1c(NCC(C)C)cccc1S(=O)(=O)NC(=O)Nc1nc(OC)cc(OC)n1 [Example 1-177] | very good herbicidal activity | very good herbicidal activity
19 | COC(=O)c1c(N)cccc1S(=O)(=O)[N-]C(=O)Nc1nc(C)nc(OC)n1.[Na+] [Example 1-16] | very good herbicidal activity | very good herbicidal activity
20 | COC(=O)c1c(NCC(C)C)cccc1S(=O)(=O)NC(=O)Nc1nc(C)nc(OC)n1 [Example 1-179] | very good herbicidal activity | very good herbicidal activity
21 | COC(=O)c1c(N(C)C)cccc1S(=O)(=O)NC(=O)Nc1nc(OC)cc(OC)n1 [Example 1-401] | very good herbicidal activity | very good herbicidal activity
22 | CCC(C)Nc1cccc(S(=O)(=O)NC(=O)Nc2nc(C)nc(OC)n2)c1C(=O)OC (stereo not shown) [Example 1-267] | very good herbicidal activity | very good herbicidal activity
23 | COC(=O)c1c(N)cccc1S(=O)(=O)NC(=O)Nc1nc(Cl)cc(OC)n1 [Example 1-23] | very good herbicidal activity | very good herbicidal activity
24 | COC(=O)c1c(N)cccc1S(=O)(=O)NC(=O)Nc1nc(C)cc(OC)n1 [Example 1-17] | very good herbicidal activity | very good herbicidal activity
25 | COC(=O)c1c(NC2CC2)cccc1S(=O)(=O)NC(=O)Nc1nc(OC)cc(OC)n1 [Example 1-353] | very good herbicidal activity | very good herbicidal activity
26 | COC(=O)c1c(N(CC(C)C)CC(C)C)cccc1S(=O)(=O)[N-]C(=O)Nc1nc(OC)cc(OC)n1.[Na+] [Example 1-426] | very good herbicidal activity | very good herbicidal activity
27 | COC(=O)c1c(NCCCC(F)(F)F)cccc1S(=O)(=O)NC(=O)Nc1nc(OC)nc(OC)n1 [Example 1-247] | very good herbicidal activity | very good herbicidal activity
28 | COC(=O)c1c(N)cccc1S(=O)(=O)NC(=O)Nc1nc(OC)cc(OC)n1 [Example 1-11] | very good herbicidal activity | very good herbicidal activity
29 | COC(=O)c1c(NCCCC(F)(F)F)cccc1S(=O)(=O)NC(=O)Nc1nc(C)nc(OC)n1 [Example 1-243] | very good herbicidal activity | very good herbicidal activity
30 | CCOC(=O)c1c(N)cccc1S(=O)(=O)NC(=O)Nc1nc(C)nc(OC)n1 [Example 1-47] | very good herbicidal activity | very good herbicidal activity
31 | CCC(C)Nc1cccc(S(=O)(=O)NC(=O)Nc2nc(OC)cc(OC)n2)c1C(=O)OC (stereo not shown) [Example 1-265] | very good herbicidal activity | very good herbicidal activity
32 | COC(=O)c1c(NCc2ccccc2)cccc1S(=O)(=O)NC(=O)Nc1nc(OC)nc(OC)n1 [Example 1-387] | very good herbicidal activity | very good herbicidal activity
